# From patent publication US20140249076A1, “AMYLIN-CALCITONIN CHIMERIC PEPTIDES CONJUGATED TO DURATION ENHANCING MOIETIES” (AMYLIN PHARMACEUTICALS, LLC, priority 2011, published 2014)
# Numbered stars: 1 amine (or outer) side, 2 acyl side, 3 side chain; on linkers, the order of the positions; unused ones are H or OH. Bridge positions count the residues as written; N and C are the ends. Side chains are listed from the residue outwards. Peptide text beside a SMILES is read from it. * marks the point of attachment. γGlu = O=C(O)[C@H](CCC(=O)[*:2])N[*:1]; Palmitoyl = CCCCCCCCCCCCCCCC(=O)*
# Tests used:
# mice = experiment: Forced swim test (FST); assay type: in vivo, mouse; conditions: qualitative result; 0.03 mg/kg dosing, as in Example 8
# Text: The forced swim test (FST) is a commonly used paradigm to evaluate antidepressant activity of drugs. The FST is based on measurement of the animal's floating time in a tank filled with water. When rats or mice are forced to swim in a deep cylinder with tepid water they become nearly immobile and cease trying to escape. Without wishing to be bound by any theory, it is believe that this characteristic immobile posture reflects a depressive-like state which is readily influenced by a wide variety of antidepressants. See, e.g., Hedou et al., 2001, Pharmacol, Biochem. Behay. 70:65-76; Chaki et al., 2003, J. Pharmacol. Exp. Ther. 304:818-826; Porsolt et al., 1977, Nature 266:730-732. Antidepressants decrease the immobility time in the FST. Vehicle or test compound can be delivered continuously for two weeks to mice by subcutaneously implanted osmotic pumps prior to the FST. Indeed, any route of administration (e.g., intraperitoneal, subcutaneous, oral and the like) is available. Mice can be placed in the water tank for assessment of climbing, swimming, and immobility over a defined trial session, typically 6 minutes. Test session parameters for mice and rats are typically different, as known in the art.
# The forced swim test (FST) is a commonly used paradigm to evaluate antidepressant activity of drugs. […] Specifically, vehicle or test compound was delivered continuously for two weeks to mice by subcutaneously implanted osmotic pumps prior to the FST assay, by methods well known in the art. On day one, the patients were introduced into the tank for a 15 minute pre-swim session. On day two, the patients were placed back into the water tank for assessment of climbing, swimming, and immobility over a 6 minute trial session. The rate of compound infusion was 0.03 mg/kg/day.
# [1] = test system: male Harlan Sprague-Dawley rats; experiment: Stress-induced hyperthermia (SIH) assay; assay type: in vivo, rat; conditions: 0.1 mg/kg IP, 18 hr pretreatment
# Text: Stress-induced hyperthermia (SIH). Body temperature and emotional state are closely related in humans. Without wishing to be bound by any theory, it is believed that stress-induced hyperthermia (SIH) in rodents has predictive validity for certain human anxiety/stress disorders. The SIH assay assesses the effect of test agents (e.g, anxiolytics) on core body temperature following restraint stress. See, for example, Zethof et al., 1994, Physiol. Behay. 55:109-115. Anxiolytics typically blunt the increase in body temperature, or hyperthermic response, following stress exposure. […] Test animals can then be patiented to two sequential rectal temperature measurements at a measured time interval (e.g, 30 min). The difference between the second temperature reading and the first temperature reading (ΔT) is the stress-induced hyperthermic response.
# As described above, it is believed that stress-induced hyperthermia (SIH) in rodents (e.g., rats) has predictive validity for certain human anxiety/stress disorders. […] Temperature readings were obtained remotely at the time of injection and at t=0 and t=30 minutes. The SIH response was defined as the change from t=30 back to t=0 minutes, while effects on basal temperature were calculated as the change from t=0 back to the time of injection.
# Amylin receptor = target: T1, Amylin receptor (Rattus norvegicus, UniProt P32214); experiment: Amylin receptor binding assay (125I-rat amylin, RNA membranes); conditions: Table 8
# T1 construct: from tissue; read as rat nucleus accumbens membranes
# T1 sequence (P32214 25-516): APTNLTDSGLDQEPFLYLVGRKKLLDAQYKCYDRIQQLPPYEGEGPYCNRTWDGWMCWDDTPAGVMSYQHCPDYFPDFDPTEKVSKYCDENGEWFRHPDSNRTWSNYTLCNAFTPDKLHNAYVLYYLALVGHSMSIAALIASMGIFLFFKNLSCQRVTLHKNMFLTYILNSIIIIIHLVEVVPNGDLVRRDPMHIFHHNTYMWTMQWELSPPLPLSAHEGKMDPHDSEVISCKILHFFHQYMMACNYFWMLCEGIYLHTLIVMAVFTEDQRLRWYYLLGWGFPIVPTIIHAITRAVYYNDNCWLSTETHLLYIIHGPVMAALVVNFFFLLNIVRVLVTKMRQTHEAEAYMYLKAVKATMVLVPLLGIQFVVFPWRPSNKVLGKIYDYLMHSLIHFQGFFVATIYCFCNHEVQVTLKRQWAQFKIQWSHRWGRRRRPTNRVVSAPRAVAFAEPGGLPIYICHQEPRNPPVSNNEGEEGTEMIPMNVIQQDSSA
# T1 sequence (Q9JJ74 27-148 partner): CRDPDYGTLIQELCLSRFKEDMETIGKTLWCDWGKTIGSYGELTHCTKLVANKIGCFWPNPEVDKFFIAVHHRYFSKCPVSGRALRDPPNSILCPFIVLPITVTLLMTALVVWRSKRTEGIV
# Protocol: (§1) Amylin receptor binding assay. RNA membranes can be incubated with approximately 20 μM (final concentration) of ^125I-rat amylin (Bolton-Hunter labeled, PerkinElmer, Waltham, Mass.) and increasing concentrations of test compound for 1 hour at ambient temperature in, for example, 96-well polystyrene plates. […] Dried glass fiber plates can be combined with scintillant and counted on a multi-well Perkin Elmer scintillation counter.
# (§2) A variety of receptor binding and functional activity assays were conducted using the peptide conjugates described herein. Receptor binding activity can be expressed, for example in Table 6, as an IC50 value, calculated from the raw data using an iterative curve-fitting program using a 4-parameter logistic equation (PRISM®, GraphPAD Software, La Jolla, Calif.), as known in the art.
# as §1, with “For the amylin” for “Amylin”, “assay,” for “assay.”, “were” for “can be”, “in” for “in, for example,”, “counter, as well known in the art.” for “counter.”
# Calcitonin receptor = target: T2, Calcitonin receptor (Rattus norvegicus, UniProt P32214); experiment: Calcitonin receptor binding assay (125I-human calcitonin, C1a-HEK cell membranes); conditions: Table 8
# T2 construct: expressed in transfected cells; host or cells: C1a-HEK cells (HEK cells stably expressing the receptor), membranes
# T2 sequence (P32214 25-479 isoform P32214-2 limits assumed): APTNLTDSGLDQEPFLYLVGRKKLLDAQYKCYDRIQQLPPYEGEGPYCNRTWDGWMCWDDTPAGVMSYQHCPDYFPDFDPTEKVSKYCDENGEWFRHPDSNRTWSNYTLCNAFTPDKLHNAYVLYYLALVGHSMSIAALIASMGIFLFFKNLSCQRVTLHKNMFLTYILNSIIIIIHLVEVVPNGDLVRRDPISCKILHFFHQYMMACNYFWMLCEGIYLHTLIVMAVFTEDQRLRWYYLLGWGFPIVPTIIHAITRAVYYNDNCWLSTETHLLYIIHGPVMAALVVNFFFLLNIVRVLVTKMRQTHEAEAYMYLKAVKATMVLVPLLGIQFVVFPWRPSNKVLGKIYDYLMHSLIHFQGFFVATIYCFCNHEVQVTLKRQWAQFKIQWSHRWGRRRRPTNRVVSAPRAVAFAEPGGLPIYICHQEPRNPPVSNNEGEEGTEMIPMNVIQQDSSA
# Protocol: as §1, with “Calcitonin” for “Amylin”, “C1a-HEK cell” for “RNA”, “[…]” for “20”, “^125I-human calcitonin (PerkinElmer,” for “^125I-rat amylin (Bolton-Hunter labeled, PerkinElmer,”, “multiwell” for “multi-well”
# as §2
# For the calcitonin receptor binding assay, C1a-HEK cell membranes were incubated with approximately […] (final concentration) of ^125I-human calcitonin (PerkinElmer, Waltham, Mass.) and increasing concentrations of test compound for 1 hour at ambient temperature in 96-well polystyrene plates. […] Dried glass fiber plates were combined with scintillant and counted on a multiwell Perkin Elmer scintillation counter.
IC50 (Amylin receptor),IC50 (Calcitonin receptor),SMILES,"FST Assay, 0.03 mg/kg (mice)",SIH response [1]
,,"CCCCCCCCCCCCCCCC(=O)N[C@@H](CCC(=O)NCCCC[C@H](NC(=O)[C@@H](NC(=O)[C@H](CCCNC(=N)N)NC(=O)[C@@H]1CCCN1C(=O)[C@H](Cc1ccc(O)cc1)NC(=O)[C@@H](NC(=O)[C@H](CCC(N)=O)NC(=O)[C@H](CC(C)C)NC(=O)[C@H](CCCNC(=N)N)NC(=O)[C@H](Cc1c[nH]cn1)NC(=O)[C@H](CC(C)C)NC(=O)[C@H](CCC(=O)O)NC(=O)[C@H](CCC(N)=O)NC(=O)[C@H](C)NC(=O)[C@H](CC(C)C)NC(=O)[C@H](CCCNC(=N)N)NC(=O)[C@H](CCC(N)=O)NC(=O)[C@H](CC(C)C)NC(=O)[C@H](C)NC(=O)[C@@H]1CSSC[C@H](NC(=O)[C@@H](N)CCCCN)C(=O)N[C@@H](CC(N)=O)C(=O)N[C@@H]([C@@H](C)O)C(=O)N[C@@H](C)C(=O)N[C@@H]([C@@H](C)O)C(=O)N1)[C@@H](C)O)[C@@H](C)O)C(=O)N[C@H](C(=O)NCC(=O)N[C@@H](CO)C(=O)N[C@@H](CC(N)=O)C(=O)N[C@H](C(=O)N[C@@H](Cc1ccc(O)cc1)C(N)=O)[C@@H](C)O)C(C)C)C(=O)O [Cmpd 189, [K^26ε-(γ-Glu(Nα-C16-Chain))]-Cmpd 17] (H-KCNTATCALQRLAQELHRLQTYPRTK([γGlu-Palmitoyl])VGSNTY-NH2; disulfide 2-7 (inferred); N-terminus assumed)",Active,statistically insignificant reduction in SIH
0.028 nM,0.095 nM,CC(C)C[C@H](NC(=O)[C@H](C)NC(=O)[C@@H]1CSSC[C@H](NC(=O)[C@@H](N)CCCCN)C(=O)N[C@@H](CC(N)=O)C(=O)N[C@@H]([C@@H](C)O)C(=O)N[C@@H](C)C(=O)N[C@@H]([C@@H](C)O)C(=O)N1)C(=O)N[C@@H](CCC(N)=O)C(=O)N[C@@H](CCCNC(=N)N)C(=O)N[C@@H](CC(C)C)C(=O)N[C@@H](C)C(=O)N[C@@H](CCC(N)=O)C(=O)N[C@@H](CCC(=O)O)C(=O)N[C@@H](CC(C)C)C(=O)N[C@@H](Cc1c[nH]cn1)C(=O)N[C@@H](CCCNC(=N)N)C(=O)N[C@@H](CC(C)C)C(=O)N[C@@H](CCC(N)=O)C(=O)N[C@H](C(=O)N[C@@H](Cc1ccc(O)cc1)C(=O)N1CCC[C@H]1C(=O)N[C@@H](CCCNC(=N)N)C(=O)N[C@H](C(=O)N[C@@H](CC(N)=O)C(=O)N[C@H](C(=O)NCC(=O)N[C@@H](CO)C(=O)N[C@@H](CC(N)=O)C(=O)N[C@H](C(=O)N[C@@H](Cc1ccc(O)cc1)C(N)=O)[C@@H](C)O)C(C)C)[C@@H](C)O)[C@@H](C)O [Cmpd 17] (H-KCNTATCALQRLAQELHRLQTYPRTNVGSNTY-NH2; disulfide 2-7; N-terminus assumed),Inactive,
